Measurements reported in patent publication US9376429B2, “Sodium channel blockers, preparation method thereof and use thereof” (Daewoong Pharmaceutical Co., Ltd., priority 2012, dated 2016).

Molecular target: T1, sodium ion channel (Nav1.7) (Homo sapiens, UniProt Q15858)
T1 construct: host or cells: HEK293
Test: Blocking effect against sodium ion channel (Nav1.7), IonFlux16 auto patch clamp, hNav1.7 HEK293 cells
Type: cell-based
Settings: peak current after 50 seconds treatment, eight concentrations
Description: In order to measure the activities of the inventive compounds as antagonists, an experiment on a blocking effect against the sodium ion channel (Nav1.7) was carried out as follows.
The hNav1.7 HEK293 cell line used was a cell line having a human sodium ion channel 1.7 gene (type IX voltage-gated sodium channel alpha subunit) in human embryonic kidney (HEK) 293 cells and was purchased from Millipore. The medium used was prepared by adding 1% 100×NEAA and 10% heat inactivated FBS to DMEM F-12 and adding 1% P/S as an antibiotic thereto. G-418 as a […] was added during subculture, and the hNav1.7 HEK293 cells were cultured to a confluence of about 80% in a T75 flask in a 5% CO2 incubator at 37° C. for 2 or 3 days and detached from the flask by treatment with 0.25% trypsin solution. Then, the cells were collected by centrifugation and used in the experiment.
The compounds prepared in the Examples of the present invention were dissolved in dimethyl sulfoxide (DMSO) and used in the experiment. 90 mM and 10 mM DMSO stock solutions were prepared from each of the compounds and diluted in an extracellular solution (4 mM KCl, 138 mM NaCl, 1 mM MgCl2, 1.8 mM CaCl2, 5.6 mM glucose, 10 mM HEPES, pH 7.45) at various concentrations so that the final concentration of each compound in DMSO was 0.3% or less.
To measure the sodium ion channel blocking effect, an IonFlux16 Auto patch clamp system (Fluxion, Inc.) and a plate for exclusive use were used. The cells were distributed in an extracellular solution (4 mM KCl, 138 mM NaCl, 1 mM MgCl2, 1.8 mM CaCl2, 5.6 mM glucose, 10 mM HEPES, pH 7.45), and then dispensed in the specified region of the plate, and each of the prepared compound samples was diluted at various concentrations, and then dispensed in the specified region of the plate.
Specifically, eight concentrations per compound were set, and percent inhibition was determined by calculating the percentage of inhibition of the peak current, generated after treating the cells with each concentration of the compound for 50 seconds, relative to the peak current generated before treatment with the compound, and the IC50 value was calculated using the Sigma plot program. In Table 2 below, the percent inhibition of Nav1.7 is rated as follows: […]

T1 sequence (Q15858 whole entry): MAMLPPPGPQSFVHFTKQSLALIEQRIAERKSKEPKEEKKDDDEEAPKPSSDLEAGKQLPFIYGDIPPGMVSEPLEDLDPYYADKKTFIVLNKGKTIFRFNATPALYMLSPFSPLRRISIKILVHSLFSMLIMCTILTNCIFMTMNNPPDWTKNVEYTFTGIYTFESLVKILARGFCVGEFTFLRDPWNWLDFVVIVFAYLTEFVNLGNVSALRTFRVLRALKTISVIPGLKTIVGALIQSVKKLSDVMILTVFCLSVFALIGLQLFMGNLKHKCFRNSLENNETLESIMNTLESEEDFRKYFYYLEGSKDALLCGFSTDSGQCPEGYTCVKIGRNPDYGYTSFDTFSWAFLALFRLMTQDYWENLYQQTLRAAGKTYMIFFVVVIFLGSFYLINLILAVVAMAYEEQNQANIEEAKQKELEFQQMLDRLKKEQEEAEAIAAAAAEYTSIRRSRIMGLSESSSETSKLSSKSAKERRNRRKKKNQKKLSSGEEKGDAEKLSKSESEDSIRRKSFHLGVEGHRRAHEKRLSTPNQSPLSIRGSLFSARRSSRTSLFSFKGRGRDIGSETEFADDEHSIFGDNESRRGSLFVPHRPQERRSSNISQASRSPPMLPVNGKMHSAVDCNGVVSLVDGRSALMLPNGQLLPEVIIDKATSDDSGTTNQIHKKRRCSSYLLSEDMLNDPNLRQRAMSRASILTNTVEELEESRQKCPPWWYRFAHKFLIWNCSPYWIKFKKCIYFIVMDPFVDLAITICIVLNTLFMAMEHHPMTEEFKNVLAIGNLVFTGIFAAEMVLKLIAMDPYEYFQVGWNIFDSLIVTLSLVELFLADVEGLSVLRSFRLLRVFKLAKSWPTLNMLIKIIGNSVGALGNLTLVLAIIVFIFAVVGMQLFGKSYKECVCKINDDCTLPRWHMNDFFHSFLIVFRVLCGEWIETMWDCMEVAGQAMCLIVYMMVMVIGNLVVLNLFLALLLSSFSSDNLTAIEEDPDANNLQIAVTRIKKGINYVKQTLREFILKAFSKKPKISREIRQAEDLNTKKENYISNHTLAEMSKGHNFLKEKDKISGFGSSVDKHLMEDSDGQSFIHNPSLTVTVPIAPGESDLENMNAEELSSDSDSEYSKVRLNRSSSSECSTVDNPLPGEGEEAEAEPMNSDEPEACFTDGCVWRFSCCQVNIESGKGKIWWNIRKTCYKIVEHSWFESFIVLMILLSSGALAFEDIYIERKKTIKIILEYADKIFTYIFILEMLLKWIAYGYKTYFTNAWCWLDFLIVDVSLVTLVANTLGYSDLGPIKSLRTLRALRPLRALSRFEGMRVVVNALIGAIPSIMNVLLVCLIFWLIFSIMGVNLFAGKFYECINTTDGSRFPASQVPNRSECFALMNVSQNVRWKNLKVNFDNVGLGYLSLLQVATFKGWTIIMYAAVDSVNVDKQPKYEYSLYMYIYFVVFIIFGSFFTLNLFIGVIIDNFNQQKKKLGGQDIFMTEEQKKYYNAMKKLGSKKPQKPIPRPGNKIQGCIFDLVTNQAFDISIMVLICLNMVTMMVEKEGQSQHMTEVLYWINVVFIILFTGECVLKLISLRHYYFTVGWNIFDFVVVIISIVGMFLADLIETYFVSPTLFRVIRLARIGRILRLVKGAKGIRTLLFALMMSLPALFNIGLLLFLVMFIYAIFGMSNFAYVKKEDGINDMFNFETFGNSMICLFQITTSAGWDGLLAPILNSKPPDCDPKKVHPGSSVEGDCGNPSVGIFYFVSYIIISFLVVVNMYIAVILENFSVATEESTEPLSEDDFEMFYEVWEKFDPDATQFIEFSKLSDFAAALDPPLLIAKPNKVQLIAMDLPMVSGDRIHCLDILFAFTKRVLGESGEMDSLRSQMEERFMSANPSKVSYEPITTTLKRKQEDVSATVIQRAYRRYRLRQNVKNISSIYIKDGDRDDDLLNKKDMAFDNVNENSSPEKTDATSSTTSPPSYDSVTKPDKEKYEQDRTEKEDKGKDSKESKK

| SMILES | IC50 |
| --- | --- |
| Cn1cc(-c2cc(-c3ccoc3)c(Oc3ccc(S(=O)(=O)Nc4nccs4)cc3C#N)cn2)cn1 [Example 46, 3-cyano-4-((4-(furan-3-yl)-6-(1-methyl-1H-pyrazol-4-yl)pyridin-3-yl)oxy)-N-(thiazol-2-yl)benzenesulfonamide] | > 100 nM |
| O=S(=O)(Nc1nccs1)c1ccc(Oc2cnc(-c3cccnc3F)cc2-c2ccoc2)c(F)c1 [Example 47, 3-fluoro-4-((2′-fluoro-4-(furan-3-yl)-[2,3′-bipyridin]-5-yl)oxy)-N-(thiazol-2-yl)benzenesulfonamide] | > 100 nM |
| O=S(=O)(Nc1nccs1)c1ccc(Oc2cnc(-c3ccc(F)nc3)cc2-c2ccoc2)c(F)c1 [Example 48, 3-fluoro-4-((6′-fluoro-4-(furan-3-yl)-[2,3′-bipyridin]-5-yl)oxy)-N-(thiazol-2-yl)benzenesulfonamide] | > 100 nM |
| N#Cc1cc(S(=O)(=O)Nc2nccs2)ccc1Oc1cnc(-c2ccc(F)nc2)cc1-c1cccnc1 [Example 49, 3-cyano-4-((6-fluoro-[3,2′:4′,3″-terpyridin]-5′-yl)oxy)-N-(thiazol-2-yl)benzenesulfonamide] | > 100 nM |
| N#Cc1cc(S(=O)(=O)Nc2nccs2)ccc1Oc1cnc(-c2cccnc2F)cc1-c1cccnc1 [Example 51, 3-cyano-4-((2-fluoro-[3,2′:4′,3″-terpyridin]-5′-yl)oxy)-N-(thiazol-2-yl)benzenesulfonamide] | > 100 nM |
| N#Cc1cc(S(=O)(=O)Nc2nccs2)ccc1Oc1cnc(-c2ccccc2F)cc1-c1cccnc1 [Example 52, 3-cyano-4-((6′-(2-fluorophenyl)-[3,4′-bipyridin]-3′-yl)oxy)-N-(thiazol-2-yl)benzenesulfonamide] | > 100 nM |
| N#Cc1cc(S(=O)(=O)Nc2nccs2)ccc1Oc1cnc(-c2ccc(F)nc2F)cc1-c1ccncc1 [Example 53, 3-cyano-4-((2,6-difluoro-[3,2′:4′,4″-terpyridin]-5′-yl)oxy)-N-(thiazol-2-yl)benzenesulfonamide] | > 100 nM |
| Cn1cc(-c2cc(-c3cnn(C)c3)c(Oc3ccc(S(=O)(=O)Nc4nccs4)cc3C#N)cn2)cn1 [Example 54, 4-((4,6-bis(1-methyl-1H-pyrazol-4-yl)pyridin-3-yl)oxy)-3-cyano-N-(thiazol-2-yl)benzenesulfonamide] | > 100 nM |
| Cn1cc(-c2cc(-c3cnn(C)c3)c(Oc3ccc(S(=O)(=O)Nc4ncns4)cc3C#N)cn2)cn1 [Example 55, 4-((4,6-bis(1-methyl-1H-pyrazol-4-yl)pyridin-3-yl)oxy)-3-cyano-N-(1,2,4-thiadiazol-5-yl)benzenesulfonamide] | > 100 nM |
| O=S(=O)(Nc1cscn1)c1cc(Cl)c(Oc2cnc(-c3cccnc3F)cc2-c2ccoc2)cc1F [Example 56, 5-chloro-2-fluoro-4-((2′-fluoro-4-(furan-3-yl)-[2,3′-bipyridin]-5-yl)oxy)-N-(thiazol-4-yl)benzenesulfonamide] | > 100 nM |
| O=S(=O)(Nc1cscn1)c1cc(Cl)c(Oc2cnc(-c3ccc(F)nc3)cc2-c2ccoc2)cc1F [Example 57, 5-chloro-2-fluoro-4-((6′-fluoro-4-(furan-3-yl)-[2,3′-bipyridin]-5-yl)oxy)-N-(thiazol-4-yl)benzenesulfonamide] | > 100 nM |
| O=S(=O)(Nc1cscn1)c1cc(Cl)c(Oc2cnc(-c3ccc(F)nc3F)cc2-c2ccoc2)cc1F [Example 58, 5-chloro-4-((2′,6′-difluoro-4-(furan-3-yl)-[2,3′-bipyridin]-5-yl)oxy)-2-fluoro-N-(thiazol-4-yl)benzenesulfonamide] | > 100 nM |
| O=S(=O)(Nc1cscn1)c1cc(Cl)c(Oc2cnc(-c3cccc(F)c3)cc2-c2ccoc2)cc1F [Example 59, 5-chloro-2-fluoro-4-((6-(3-fluorophenyl)-4-(furan-3-yl)pyridin-3-yl)oxy)-N-(thiazol-4-yl)benzenesulfonamide] | > 100 nM |
| O=S(=O)(Nc1cscn1)c1cc(Cl)c(Oc2cnc(-c3ccccc3F)cc2-c2ccoc2)cc1F [Example 60, 5-chloro-2-fluoro-4-((6-(2-fluorophenyl)-4-(furan-3-yl)pyridin-3-yl)oxy)-N-(thiazol-4-yl)benzenesulfonamide] | > 100 nM |
| O=S(=O)(Nc1cscn1)c1cc(Cl)c(Oc2cnc(-c3ccc(F)cc3)cc2-c2ccoc2)cc1F [Example 61, 5-chloro-2-fluoro-4-((6-(4-fluorophenyl)-4-(furan-3-yl)pyridin-3-yl)oxy)-N-(thiazol-4-yl)benzenesulfonamide] | > 100 nM |

Results, then the compound that gave them:

| IC50 | SMILES |
| --- | --- |
| > 100 nM | Cc1cc(-c2cc(-c3ccccc3)ncc2Oc2ccc(S(=O)(=O)Nc3nccs3)cc2C#N)cnc1F [Example 32, 3-cyano-4-((6-fluoro-5-methyl-6′-phenyl-[3,4′-bipyridin]-3′-yl)oxy)-N-(thiazol-2-yl)benzenesulfonamide] |
| > 100 nM | N#Cc1cc(S(=O)(=O)Nc2nccs2)ccc1Oc1cnc(-c2ccccc2)cc1-c1cccnc1 [Example 33, 3-cyano-4-((6′-phenyl-[3,4′-bipyridin]-3′-yl)oxy)-N-(thiazol-2-yl)benzenesulfonamide] |
| > 100 nM | N#Cc1cc(S(=O)(=O)Nc2nccs2)ccc1Oc1cnc(-c2ccccc2)cc1-c1cncnc1 [Example 34, 3-cyano-4-((6-phenyl-4-(pyrimidin-5-yl)pyridin-3-yl)oxy)-N-(thiazol-2-yl)benzenesulfonamide] |
| > 100 nM | N#Cc1cc(S(=O)(=O)Nc2nccs2)ccc1Oc1cnc(-c2ccccc2)cc1-c1ccncc1Cl [Example 35, 4-((3′-chloro-6-phenyl-[4,4′-bipyridin]-3-yl)oxy)-3-cyano-N-(thiazol-2-yl)benzenesulfonamide] |
| > 100 nM | N#Cc1cc(S(=O)(=O)Nc2nccs2)ccc1Oc1cnc(-c2ccccc2)cc1-c1ccnc(Cl)c1Cl [Example 36, 3-cyano-4-((2′,3′-dichloro-6-phenyl-[4,4′-bipyridin]-3-yl)oxy)-N-(thiazol-2-yl)benzenesulfonamide] |
| > 100 nM | Cc1noc(C)c1-c1cc(-c2ccccc2)ncc1Oc1ccc(S(=O)(=O)Nc2nccs2)cc1C#N [Example 37, 3-cyano-4-((4-(3,5-dimethylisoxazol-4-yl)-6-phenylpyridin-3-yl)oxy)-N-(thiazol-2-yl)benzenesulfonamide] |
| > 100 nM | Cn1cc(-c2cc(-c3ccccc3)ncc2Oc2ccc(S(=O)(=O)Nc3nccs3)cc2C#N)cn1 [Example 38, 3-cyano-4-((4-(1-methyl-1H-pyrazol-4-yl)-6-phenylpyridin-3-yl)oxy)-N-(thiazol-2-yl)benzenesulfonamide] |
| 51 to 100 nM | N#Cc1cc(S(=O)(=O)Nc2nccs2)ccc1Oc1cnc(-c2ccccc2)cc1-c1cn[nH]c1 [Example 39, 3-cyano-4-((6-phenyl-4-(1H-pyrazol-4-yl)pyridin-3-yl)oxy)-N-(thiazol-2-yl)benzenesulfonamide] |
| > 100 nM | N#Cc1cc(S(=O)(=O)Nc2nccs2)ccc1Oc1cnc(-c2ccccc2)cc1-c1ccncc1 [Example 40, 3-cyano-4-((6-phenyl-[4,4′-bipyridin]-3-yl)oxy)-N-(thiazol-2-yl)benzenesulfonamide] |
| > 100 nM | Cc1cc(-c2cc(-c3ccccc3)ncc2Oc2ccc(S(=O)(=O)Nc3nccs3)cc2C#N)c(C)s1 [Example 41, 3-cyano-4-((4-(2,5-dimethylthiophen-3-yl)-6-phenylpyridin-3-yl)oxy)-N-(thiazol-2-yl)benzenesulfonamide] |
| > 100 nM | Cc1ccc(-c2cc(-c3ccccc3)ncc2Oc2ccc(S(=O)(=O)Nc3nccs3)cc2C#N)s1 [Example 42, 3-cyano-4-((4-(5-methylthiophen-2-yl)-6-phenylpyridin-3-yl)oxy)-N-(thiazol-2-yl)benzenesulfonamide] |
| > 100 nM | N#Cc1cc(S(=O)(=O)Nc2nccs2)ccc1Oc1cnc(-c2ccccc2)cc1-c1csc(C2CC2)n1 [Example 43, 3-cyano-4-((4-(2-cyclopropylthiazol-4-yl)-6-phenylpyridin-3-yl)oxy)-N-(thiazol-2-yl)benzenesulfonamide] |
| > 100 nM | N#Cc1cc(S(=O)(=O)Nc2nccs2)ccc1Oc1cnc(-c2ccccc2)cc1-c1cnn(C2CC2)c1 [Example 44, 3-cyano-4-((4-(1-cyclopropyl-1H-pyrazol-4-yl)-6-phenylpyridin-3-yl)oxy)-N-(thiazol-2-yl)benzenesulfonamide] |
| > 100 nM | N#Cc1cc(S(=O)(=O)Nc2nccs2)ccc1Oc1cnc(-c2cn[nH]c2)cc1-c1ccoc1 [Example 45, 3-cyano-4-((4-(furan-3-yl)-6-(1H-pyrazol-4-yl)pyridin-3-yl)oxy)-N-(thiazol-2-yl)benzenesulfonamide] |
| < 50 nM | N#Cc1cc(S(=O)(=O)Nc2nccs2)ccc1Oc1cnc(-c2cccc(F)c2)cc1-c1cccnc1 [Example 50, 3-cyano-4-((6′-(3-fluorophenyl)-[3,4′-bipyridin]-3′-yl)oxy)-N-(thiazol-2-yl)benzenesulfonamide] |
